Experimental data reported in ChEMBL document CHEMBL1770126, “Molecular probes for the A2A adenosine receptor based on a pyrazolo[4,3-e][1,2,4]triazolo[1,5-c]pyrimidin-5-amine scaffold” (Bioorg Med Chem Lett, 2011).

Key:
Assay type in all cases: cell-based
Adenosine receptor A2a = Adenosine receptor A2a (Homo sapiens, UniProt P29274); experiment: Displacement of [3H]CGS21680 from human recombinant adenosine A2A receptor expressed in HEK293 cells after 60 mins by liquid scintillation counting
Adenosine receptor A1 = molecular target: T1, Adenosine receptor A1 (Homo sapiens, UniProt P30542); experiment: Displacement of [3H]DPCPX from human recombinant adenosine A1 receptor expressed in CHO cells after 60 mins by liquid scintillation counting
T1 sequence (P30542 whole entry): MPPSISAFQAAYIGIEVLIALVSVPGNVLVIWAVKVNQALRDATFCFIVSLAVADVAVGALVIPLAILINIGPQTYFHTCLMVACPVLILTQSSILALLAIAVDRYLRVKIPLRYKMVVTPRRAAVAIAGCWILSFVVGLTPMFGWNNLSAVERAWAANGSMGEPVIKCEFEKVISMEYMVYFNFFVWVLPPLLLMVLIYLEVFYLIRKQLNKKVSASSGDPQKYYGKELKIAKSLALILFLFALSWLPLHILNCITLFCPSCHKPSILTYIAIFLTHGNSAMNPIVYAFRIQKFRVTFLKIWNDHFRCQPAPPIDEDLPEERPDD

[1] = molecular target: T2, Adenosine receptor A3 (Homo sapiens) (UniProt P0DMS8); experiment: Displacement of [125I]I-AB-MECA from human recombinant adenosine A3 receptor expressed in CHO cells at 10 uM after 60 mins by gamma scintillation counting
T2 sequence (whole entry): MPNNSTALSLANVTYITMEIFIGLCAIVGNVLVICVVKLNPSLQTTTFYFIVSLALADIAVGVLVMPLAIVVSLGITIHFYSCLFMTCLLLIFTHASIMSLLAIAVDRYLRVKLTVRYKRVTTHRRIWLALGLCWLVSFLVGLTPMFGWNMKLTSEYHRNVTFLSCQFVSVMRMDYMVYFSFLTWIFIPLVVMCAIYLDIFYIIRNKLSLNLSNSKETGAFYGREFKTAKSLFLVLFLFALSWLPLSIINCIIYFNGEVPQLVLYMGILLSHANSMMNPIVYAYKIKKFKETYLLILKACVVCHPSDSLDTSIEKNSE

Adenosine receptor A3 = molecular target: T3, Adenosine receptor A3 (Homo sapiens, UniProt P0DMS8); experiment: Displacement of [125I]I-AB-MECA from human recombinant adenosine A3 receptor expressed in CHO cells after 60 mins by gamma scintillation counting
T3 sequence (P0DMS8 whole entry): T2 sequence (whole entry)

[2] = molecular target: T4, Adenosine receptor A1 (Homo sapiens) (UniProt P30542); experiment: Displacement of [3H]DPCPX from human recombinant adenosine A1 receptor expressed in CHO cells at 10 uM after 60 mins by liquid scintillation counting
T4 sequence (whole entry): T1 sequence (P30542 whole entry)

Chain of Adenosine receptor A2a (P29274 whole entry): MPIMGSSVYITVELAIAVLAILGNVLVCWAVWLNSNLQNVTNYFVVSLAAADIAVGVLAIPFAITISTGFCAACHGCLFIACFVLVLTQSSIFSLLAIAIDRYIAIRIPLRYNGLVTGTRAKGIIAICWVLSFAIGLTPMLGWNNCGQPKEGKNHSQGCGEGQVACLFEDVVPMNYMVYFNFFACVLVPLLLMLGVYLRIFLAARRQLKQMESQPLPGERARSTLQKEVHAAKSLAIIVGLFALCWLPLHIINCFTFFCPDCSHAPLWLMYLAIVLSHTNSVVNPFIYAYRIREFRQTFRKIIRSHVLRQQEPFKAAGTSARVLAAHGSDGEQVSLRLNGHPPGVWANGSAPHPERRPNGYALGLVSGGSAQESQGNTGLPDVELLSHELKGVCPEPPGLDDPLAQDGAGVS

SMILES: Nc1nc2c(cnn2CCCc2ccc(OCC(=O)O)cc2)c2nc(-c3ccco3)nn12
- Ki (Adenosine receptor A2a): 10.2 nM
- Ki (Adenosine receptor A1): 1700 nM
- inhibition [1]: 29%

SMILES: COC(=O)COc1ccc(CCCn2ncc3c2nc(N)n2nc(-c4ccco4)nc32)cc1
- Ki (Adenosine receptor A2a): 96 nM
- Ki (Adenosine receptor A1): 4840 nM
- inhibition [1]: 50%

SMILES: Nc1nc2c(cnn2CCCc2ccc(OCC(=O)NCCNCCNC(=O)CCCCCNC(=O)COc3ccc(/C=C/C4=[N+]5C(=Cc6ccc(-c7ccc[nH]7)n6[B-]5(F)F)C=C4)cc3)cc2)c2nc(-c3ccco3)nn12
- Ki (Adenosine receptor A2a): 15.1 nM
- inhibition [1]: 28%

SMILES: NCCNCCNC(=O)COc1ccc(CCCn2ncc3c2nc(N)n2nc(-c4ccco4)nc32)cc1
- Ki (Adenosine receptor A3): 3290 nM
- Ki (Adenosine receptor A2a): 10.7 nM
- inhibition [2]: 20%

SMILES: N=c1ccc2c(-c3ccc(C(=O)NCCNC(=O)COc4ccc(CCCn5ncc6c5nc(N)n5nc(-c7ccco7)nc65)cc4)cc3C(=O)O)c3ccc(N)c(S(=O)(=O)O)c3oc-2c1S(=O)(=O)O
- Ki (Adenosine receptor A2a): 111 nM
- inhibition [2]: 20%
- inhibition [1]: 4%

SMILES: CN(C)c1ccc2c(-c3ccc(C(=O)NCCNC(=O)COc4ccc(CCCn5ncc6c5nc(N)n5nc(-c7ccco7)nc65)cc4)cc3C(=O)[O-])c3ccc(=[N+](C)C)cc-3oc2c1
- Ki (Adenosine receptor A2a): 357 nM
- inhibition [2]: 7%
- inhibition [1]: 24%

SMILES: NCCNC(=O)COc1ccc(CCCn2ncc3c2nc(N)n2nc(-c4ccco4)nc32)cc1
- Ki (Adenosine receptor A3): 3970 nM
- Ki (Adenosine receptor A2a): 6.8 nM
- Ki (Adenosine receptor A1): 1270 nM

SMILES: Nc1nc2c(cnn2CCCc2ccc(OCCCF)cc2)c2nc(-c3ccco3)nn12
- Ki (Adenosine receptor A3): 1320 nM
- Ki (Adenosine receptor A2a): 53.6 nM
- Ki (Adenosine receptor A1): 1000 nM

SMILES: C#CCCCCC(=O)NCCNC(=O)COc1ccc(CCCn2ncc3c2nc(N)n2nc(-c4ccco4)nc32)cc1
- Ki (Adenosine receptor A3): 1280 nM
- Ki (Adenosine receptor A2a): 75.4 nM
- Ki (Adenosine receptor A1): 1100 nM

SMILES: COc1ccc(CCCn2ncc3c2nc(N)n2nc(-c4ccco4)nc32)cc1
- inhibition [2]: 35%

SMILES: Nc1nc2c(cnn2CCCc2ccc(O)cc2)c2nc(-c3ccco3)nn12
- Ki (Adenosine receptor A1): 4440 nM

SMILES: CC(=O)NCCn1cc(CCCCC(=O)NCCNC(=O)COc2ccc(CCCn3ncc4c3nc(N)n3nc(-c5ccco5)nc43)cc2)nn1
- Ki (Adenosine receptor A3): 302 nM
- Ki (Adenosine receptor A2a): 220 nM
- Ki (Adenosine receptor A1): 1700 nM
